Patent publication US10800791B2, “Triazole ACC inhibitors and uses thereof” (Gilead Apollo, LLC, priority 2015, dated 2020)
Values after ≈ are worked out from the molar mass of the structure shown. Where two headings read alike, the source gives them in different places.

Experiments:
human (hACC2) = human (hACC2) (Homo sapiens, UniProt O00763); experiment: In vitro ACC inhibition assay (ADP-Glo), hACC2; assay type: biochemical; settings: 5 nM ACC2, 20 μM ATP, 20 μM acetyl-CoA
Protocol: The detailed procedure is as follows. […] 10 μL ADP glo reagent was added. […] 20 μL kinase detection reagent was added.

C. albicans = experiment: Antifungal Activity Assay (broth microtiter MIC), C. albicans; assay type: cell-based, Candida albicans; settings: for MIC: Candida albicans, ATCC90028, 48 h
How it was run: (§1)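 CLSI M27-A3 microdilution; RPMI 1640+MOPS; 2.5×10^3 CFU/mL final inoculum; cultures from Sabouraud dextrose agar, 35° C overnight; compound working solution 128 μg/mL from 1 mg/mL DMSO stock; visual MIC at 48 h vs growth control.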

C. krusei = experiment: Antifungal Activity Assay (broth microtiter MIC), C. krusei; assay type: cell-based, Candida krusei; settings: for MIC: Pichia kudriavzevii, ATCC6258, 48 h
How it was run: as §1

C. parapsilosis = experiment: Antifungal Activity Assay (broth microtiter MIC), C. parapsilosis; assay type: cell-based, Candida parapsilosis; settings: for MIC: Lodderomyces parapsilosis, ATCC22019, 48 h
How it was run: as §1

Botrtyis cinerea (Bc) = experiment: Growth inhibition assay of fungal pathogens, Bc; assay type: cell-based; settings: growth inhibition at 48 hours vs 2% DMSO control; for IC90: 48 h
How it was run: (§2)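 Read-out: OD600 plus visual rating at 24 and 48 h, blank (media + 2% DMSO) subtracted. Percent inhibition was derived at 48 h versus the 2% DMSO control. Spores were grown in 17% V8 broth with compound at 50/10/2 or 2/0.4/0.08 ppm final.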

[1] = test system: Collectotrichum graminicola (Cg); experiment: Growth inhibition assay of fungal pathogens, Cg; assay type: cell-based; settings: growth inhibition at 48 hours vs 2% DMSO control; for IC90: 48 h
How it was run: as §2

Diplodia maydis (Dm) = experiment: Growth inhibition assay of fungal pathogens, Dm; assay type: cell-based; settings: growth inhibition at 48 hours vs 2% DMSO control; for IC90: Stenocarpella maydis, 48 h
How it was run: as §2

[2] = test system: Fusarium moniliforme (Fm); experiment: Growth inhibition assay of fungal pathogens, Fm; assay type: cell-based; settings: for IC90: Fusarium verticillioides, 48 h, read-out: Concentration at 90% Inhibition Fm
How it was run: as §2

[3] = test system: Fusarium virguliforme (Fv); experiment: Growth inhibition assay of fungal pathogens, Fv; assay type: cell-based; settings: for IC90: 48 h
How it was run: as §2

[4] = test system: Phytophthora capsici (Pc); experiment: Growth inhibition assay of fungal pathogens, Pc; assay type: cell-based; settings: for IC90: 48 h
How it was run: as §2

Rhizoctonia solani (Rs) = experiment: Growth inhibition assay of fungal pathogens, Rs; assay type: cell-based; settings: for IC90: 48 h
Septoria tritici (St) = experiment: Growth inhibition assay of fungal pathogens, St; assay type: cell-based; settings: growth inhibition at 48 hours vs 2% DMSO control; for IC90: Zymoseptoria tritici, 48 h
How it was run: as §2

fungal (fACC2) = fungal (fACC2) (UniProt Q00955); settings: read-out: fACC2 (in vitro ACC2 Inhibition Assay, IC50), ADP-Glo, 5 nM ACC2, 20 μM ATP, 20 μM acetyl-CoA
Sequence of fungal (fACC2) (Q00955 whole entry): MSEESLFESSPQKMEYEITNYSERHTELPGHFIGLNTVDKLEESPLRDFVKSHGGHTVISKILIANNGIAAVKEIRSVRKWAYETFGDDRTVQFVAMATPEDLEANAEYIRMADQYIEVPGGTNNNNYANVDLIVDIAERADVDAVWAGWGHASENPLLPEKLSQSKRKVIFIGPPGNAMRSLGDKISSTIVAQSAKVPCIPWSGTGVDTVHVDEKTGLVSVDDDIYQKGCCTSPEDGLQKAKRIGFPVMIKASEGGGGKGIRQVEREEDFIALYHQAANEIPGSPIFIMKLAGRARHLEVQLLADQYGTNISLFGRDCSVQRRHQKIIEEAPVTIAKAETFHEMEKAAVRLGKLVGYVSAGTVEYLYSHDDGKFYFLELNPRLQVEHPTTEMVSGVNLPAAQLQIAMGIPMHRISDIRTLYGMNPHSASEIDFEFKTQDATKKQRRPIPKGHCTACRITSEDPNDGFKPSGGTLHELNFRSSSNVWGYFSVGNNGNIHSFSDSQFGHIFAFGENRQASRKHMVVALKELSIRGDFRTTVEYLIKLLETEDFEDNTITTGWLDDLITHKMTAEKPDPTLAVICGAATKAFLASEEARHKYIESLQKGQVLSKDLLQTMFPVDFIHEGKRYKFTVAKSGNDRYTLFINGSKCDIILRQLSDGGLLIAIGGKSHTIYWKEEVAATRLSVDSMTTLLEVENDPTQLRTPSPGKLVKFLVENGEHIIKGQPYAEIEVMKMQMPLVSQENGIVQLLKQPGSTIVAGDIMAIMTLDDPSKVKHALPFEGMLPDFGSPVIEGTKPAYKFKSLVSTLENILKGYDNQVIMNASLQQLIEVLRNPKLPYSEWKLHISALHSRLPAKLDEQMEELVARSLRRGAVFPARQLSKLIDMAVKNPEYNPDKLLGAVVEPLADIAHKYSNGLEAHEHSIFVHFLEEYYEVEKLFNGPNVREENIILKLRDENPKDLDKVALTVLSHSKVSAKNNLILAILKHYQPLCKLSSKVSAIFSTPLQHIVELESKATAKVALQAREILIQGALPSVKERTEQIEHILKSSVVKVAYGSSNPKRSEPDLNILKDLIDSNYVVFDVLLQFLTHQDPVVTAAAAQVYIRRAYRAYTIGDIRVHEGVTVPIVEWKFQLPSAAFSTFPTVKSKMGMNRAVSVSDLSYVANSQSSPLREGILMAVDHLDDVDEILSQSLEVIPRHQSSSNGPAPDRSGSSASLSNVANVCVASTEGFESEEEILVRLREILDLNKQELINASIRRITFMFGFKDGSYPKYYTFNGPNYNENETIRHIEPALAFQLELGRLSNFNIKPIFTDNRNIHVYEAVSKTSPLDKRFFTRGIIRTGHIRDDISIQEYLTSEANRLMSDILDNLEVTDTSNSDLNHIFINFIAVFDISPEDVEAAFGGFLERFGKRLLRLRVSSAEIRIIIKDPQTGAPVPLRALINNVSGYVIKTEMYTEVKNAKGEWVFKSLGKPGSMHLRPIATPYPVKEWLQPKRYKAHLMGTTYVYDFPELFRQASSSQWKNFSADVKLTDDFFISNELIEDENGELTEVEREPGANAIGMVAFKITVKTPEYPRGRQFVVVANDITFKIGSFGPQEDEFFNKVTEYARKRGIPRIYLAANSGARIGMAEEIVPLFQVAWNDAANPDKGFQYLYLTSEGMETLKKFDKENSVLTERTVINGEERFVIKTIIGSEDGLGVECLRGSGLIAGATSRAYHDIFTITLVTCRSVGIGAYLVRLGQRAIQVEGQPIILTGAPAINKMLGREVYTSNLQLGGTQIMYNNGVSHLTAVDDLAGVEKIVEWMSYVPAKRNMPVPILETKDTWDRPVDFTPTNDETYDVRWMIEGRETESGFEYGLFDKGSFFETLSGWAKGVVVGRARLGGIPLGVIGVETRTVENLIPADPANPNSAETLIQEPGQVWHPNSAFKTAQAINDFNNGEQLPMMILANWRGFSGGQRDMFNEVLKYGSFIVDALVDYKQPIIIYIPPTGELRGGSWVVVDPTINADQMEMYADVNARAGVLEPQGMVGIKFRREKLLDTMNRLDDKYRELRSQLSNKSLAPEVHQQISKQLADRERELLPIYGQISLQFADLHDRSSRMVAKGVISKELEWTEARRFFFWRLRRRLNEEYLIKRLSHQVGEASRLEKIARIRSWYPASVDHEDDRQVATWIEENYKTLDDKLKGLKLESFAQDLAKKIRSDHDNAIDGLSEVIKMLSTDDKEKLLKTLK

[5] = Table 3b (additional results), ATCC 90028, 3 replicates, MIC recorded at 48 h, read-out: MIC, C. albicans ATCC 90028
[6] = Table 3b (additional results), ATCC 6258, 3 replicates, MIC recorded at 48 h, read-out: MIC, C. krusei ATCC 6258
[7] = Table 3b (additional results), ATCC 22019, 3 replicates, MIC recorded at 48 h, read-out: MIC, C. parapsilosis ATCC 22019
[8] = Botrtyis cinerea, read-out: Concentration at 90% Inhibition Bc
[9] = Collectotrichum graminicola, read-out: Concentration at 90% Inhibition Cg
[10] = Diplodia maydis, read-out: Concentration at 90% Inhibition Dm
[11] = Fusarium moniliforme, growth inhibition at 48 hours vs 2% DMSO control
[12] = growth inhibition at 48 hours vs 2% DMSO control, read-out: Concentration at 90% Inhibition Fv
[13] = growth inhibition at 48 hours vs 2% DMSO control, read-out: Concentration at 90% Inhibition Pc
[14] = mycelial plugs, growth inhibition at 48 hours vs 2% DMSO control, read-out: Concentration at 90% Inhibition Rs
[15] = Septoria tritici, read-out: Concentration at 90% Inhibition St
[16] = read-out: MIC, C. albicans ATCC 90028, Table 3b (additional results), 3 replicates, MIC recorded at 48 h
[17] = read-out: MIC, C. krusei ATCC 6258, Table 3b (additional results), 3 replicates, MIC recorded at 48 h
[18] = read-out: MIC, C. parapsilosis ATCC 22019, Table 3b (additional results), 3 replicates, MIC recorded at 48 h
[19] = read-out: Concentration at 90% Inhibition Bc, Botrtyis cinerea
[20] = read-out: Concentration at 90% Inhibition Cg, Collectotrichum graminicola
[21] = read-out: Concentration at 90% Inhibition Dm, Diplodia maydis
[22] = read-out: Concentration at 90% Inhibition Fv, Fusarium virguliforme, growth inhibition at 48 hours vs 2% DMSO control
[23] = read-out: Concentration at 90% Inhibition Pc, Phytophthora capsici, growth inhibition at 48 hours vs 2% DMSO control
[24] = read-out: Concentration at 90% Inhibition Rs, Rhizoctonia solani, mycelial plugs, growth inhibition at 48 hours vs 2% DMSO control
[25] = read-out: Concentration at 90% Inhibition St, Septoria tritici
[26] = Table 3b (additional results), 3 replicates, MIC recorded at 48 h
[27] = growth inhibition at 48 hours vs 2% DMSO control

Sequence of human (hACC2) (O00763 whole entry): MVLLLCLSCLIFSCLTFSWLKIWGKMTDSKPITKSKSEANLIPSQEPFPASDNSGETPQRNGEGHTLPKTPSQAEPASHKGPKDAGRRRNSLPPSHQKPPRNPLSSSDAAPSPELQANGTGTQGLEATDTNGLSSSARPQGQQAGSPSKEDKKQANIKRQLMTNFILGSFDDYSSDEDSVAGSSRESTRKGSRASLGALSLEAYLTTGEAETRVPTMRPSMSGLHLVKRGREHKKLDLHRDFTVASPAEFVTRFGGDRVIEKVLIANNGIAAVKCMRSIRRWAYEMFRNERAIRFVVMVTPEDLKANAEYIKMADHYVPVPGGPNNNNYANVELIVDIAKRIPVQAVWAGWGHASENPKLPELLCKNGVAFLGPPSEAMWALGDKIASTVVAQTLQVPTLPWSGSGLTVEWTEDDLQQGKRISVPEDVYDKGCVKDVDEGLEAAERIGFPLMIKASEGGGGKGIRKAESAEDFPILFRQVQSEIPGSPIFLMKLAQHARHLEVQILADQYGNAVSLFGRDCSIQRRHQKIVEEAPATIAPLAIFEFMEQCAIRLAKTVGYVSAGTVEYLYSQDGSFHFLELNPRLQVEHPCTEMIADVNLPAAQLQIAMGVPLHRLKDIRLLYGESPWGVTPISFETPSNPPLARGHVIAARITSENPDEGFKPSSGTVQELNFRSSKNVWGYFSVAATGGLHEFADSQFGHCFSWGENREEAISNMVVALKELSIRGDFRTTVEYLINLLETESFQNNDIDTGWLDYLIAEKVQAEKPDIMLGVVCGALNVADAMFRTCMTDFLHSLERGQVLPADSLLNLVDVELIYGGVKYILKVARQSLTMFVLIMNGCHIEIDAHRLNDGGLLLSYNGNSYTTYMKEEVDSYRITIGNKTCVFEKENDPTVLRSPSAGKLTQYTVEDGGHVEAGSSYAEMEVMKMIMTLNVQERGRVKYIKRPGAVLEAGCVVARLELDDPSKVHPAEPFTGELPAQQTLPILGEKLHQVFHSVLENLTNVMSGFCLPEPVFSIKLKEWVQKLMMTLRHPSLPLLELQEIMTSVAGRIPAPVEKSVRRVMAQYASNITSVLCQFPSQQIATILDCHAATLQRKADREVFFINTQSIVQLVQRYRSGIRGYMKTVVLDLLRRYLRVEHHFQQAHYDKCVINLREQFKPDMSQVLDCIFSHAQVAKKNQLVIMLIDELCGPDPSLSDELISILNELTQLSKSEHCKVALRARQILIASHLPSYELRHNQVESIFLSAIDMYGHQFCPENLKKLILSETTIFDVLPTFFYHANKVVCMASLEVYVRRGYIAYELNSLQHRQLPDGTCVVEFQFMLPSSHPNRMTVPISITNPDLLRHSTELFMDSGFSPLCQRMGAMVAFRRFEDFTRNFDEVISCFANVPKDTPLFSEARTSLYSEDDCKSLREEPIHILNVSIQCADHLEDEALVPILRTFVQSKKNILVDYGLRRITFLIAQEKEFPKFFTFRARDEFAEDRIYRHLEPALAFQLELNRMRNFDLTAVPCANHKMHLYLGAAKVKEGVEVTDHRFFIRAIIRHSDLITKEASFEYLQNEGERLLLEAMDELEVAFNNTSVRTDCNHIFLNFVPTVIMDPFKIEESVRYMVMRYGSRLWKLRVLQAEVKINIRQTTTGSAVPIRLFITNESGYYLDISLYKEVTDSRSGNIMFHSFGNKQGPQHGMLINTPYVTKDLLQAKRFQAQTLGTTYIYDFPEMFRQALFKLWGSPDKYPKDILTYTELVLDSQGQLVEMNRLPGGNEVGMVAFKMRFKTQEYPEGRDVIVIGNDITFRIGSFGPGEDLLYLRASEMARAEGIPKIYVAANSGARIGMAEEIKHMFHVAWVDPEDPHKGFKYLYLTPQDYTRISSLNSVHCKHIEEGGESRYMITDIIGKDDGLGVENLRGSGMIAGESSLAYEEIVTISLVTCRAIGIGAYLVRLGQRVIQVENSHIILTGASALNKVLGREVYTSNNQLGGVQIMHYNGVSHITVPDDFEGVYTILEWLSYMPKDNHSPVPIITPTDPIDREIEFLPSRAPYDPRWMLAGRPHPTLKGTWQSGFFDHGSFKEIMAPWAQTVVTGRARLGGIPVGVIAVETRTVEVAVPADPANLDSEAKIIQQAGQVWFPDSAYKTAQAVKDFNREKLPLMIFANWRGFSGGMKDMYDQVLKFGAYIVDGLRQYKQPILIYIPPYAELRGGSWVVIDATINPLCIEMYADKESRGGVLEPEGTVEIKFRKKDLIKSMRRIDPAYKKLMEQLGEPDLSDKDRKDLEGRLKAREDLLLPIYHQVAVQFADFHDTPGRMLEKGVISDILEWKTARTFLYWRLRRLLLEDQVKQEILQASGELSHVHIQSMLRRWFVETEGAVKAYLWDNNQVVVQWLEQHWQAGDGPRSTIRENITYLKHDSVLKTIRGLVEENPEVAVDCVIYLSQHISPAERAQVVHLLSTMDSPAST

Structure (SMILES)	IC50 (human (hACC2); Table 2b, additional results) [nM]	MIC (C. albicans; [5]) [µg/mL]	MIC (C. krusei; [6]) [µg/mL]	MIC (C. parapsilosis; [7]) [µg/mL]	IC90 (Botrtyis cinerea (Bc); [8]) [µg/mL]	IC90 [1, 9] [µg/mL]	IC90 (Diplodia maydis (Dm); [10]) [µg/mL]	IC90 [2, 11] [µg/mL]	IC90 [3, 12] [µg/mL]	IC90 [4, 13] [µg/mL]	IC90 (Rhizoctonia solani (Rs); [14]) [µg/mL]	IC90 (Septoria tritici (St); [15]) [µg/mL]	IC50 (fungal (fACC2); Table 2b, additional results) [nM]	MIC (C. albicans; [16]) [µg/mL]	MIC (C. krusei; [17]) [µg/mL]	MIC (C. parapsilosis; [18]) [µg/mL]	IC90 (Botrtyis cinerea (Bc); [19]) [µg/mL]	IC90 [1, 20] [µg/mL]	IC90 (Diplodia maydis (Dm); [21]) [µg/mL]	IC90 [2] [µg/mL]	also measured
CCc1ccc(F)cc1[C@H](Cn1c(=O)n(C(C)(C)C(=O)NC(C)C)c(=O)c2c(C)c(-n3nccn3)sc21)OCC(C)(C)C#N [Compound I-238]	5 to 10	1.01 to 2 (≈ 1.62 to 3.21 µM)	> 4.01	2.01 to 4 (≈ 3.22 to 6.41 µM)	0.08 (≈ 0.128 µM)	0.08 (≈ 0.128 µM)	2 (≈ 3.21 µM)	0.08 (≈ 0.128 µM)	0.08 (≈ 0.128 µM)	> 50	0.08 (≈ 0.128 µM)	> 50	1 to 5	–	–	–	–	–	–	–	–
CNC(=O)C(C)(C)n1c(=O)c2c(C)c(-n3nccn3)sc2n(C[C@H](OCCC#N)c2cc(F)ccc2OC)c1=O [Compound I-141]	5 to 10	> 4.01	2.01 to 4 (≈ 3.53 to 7.02 µM)	2.01 to 4 (≈ 3.53 to 7.02 µM)	2 (≈ 3.51 µM)	10 (≈ 17.6 µM)	2 (≈ 3.51 µM)	0.08 (≈ 0.14 µM)	2 (≈ 3.51 µM)	> 50	0.08 (≈ 0.14 µM)	> 50	1 to 5	–	–	–	–	–	–	–	IC50 (human (hACC2); Table 2a): 5 to 10 nM; MIC (C. albicans; Table 3a, ATCC 90028, 3 replicates, MIC recorded at 48 h, read-out: MIC, C. albicans ATCC 90028): 2.1 to 4 µg/mL (≈ 3.69 to 7.02 µM); MIC (C. krusei; Table 3a, ATCC 6258, 3 replicates, MIC recorded at 48 h, read-out: MIC, C. krusei ATCC 6258): 2.1 to 4 µg/mL (≈ 3.69 to 7.02 µM); MIC (C. parapsilosis; Table 3a, ATCC 22019, 3 replicates, MIC recorded at 48 h, read-out: MIC, C. parapsilosis ATCC 22019): 2.1 to 4 µg/mL (≈ 3.69 to 7.02 µM); IC50 (fungal (fACC2); Table 2a): 1 to 5 nM
COc1ccccc1[C@@H](O)Cn1c(=O)n(C(C)(C)C(=O)NC(C)C)c(=O)c2c(C)c(-n3nccn3)sc21 [Compound I-256]	5 to 10	–	–	–	–	–	–	–	–	–	–	–	1 to 5	1.01 to 2 (≈ 1.92 to 3.8 µM)	0.25 to 1 (≈ 0.475 to 1.9 µM)	0.25 to 1 (≈ 0.475 to 1.9 µM)	0.4 (≈ 0.76 µM)	2 (≈ 3.8 µM)	2 (≈ 3.8 µM)	0.08 (≈ 0.152 µM)	IC90 [3, 22]: 0.08 µg/mL (≈ 0.152 µM); IC90 [4, 23]: 10 µg/mL (≈ 19 µM); IC90 (Rhizoctonia solani (Rs); [24]): 0.08 µg/mL (≈ 0.152 µM); IC90 (Septoria tritici (St); [25]): > 50 µg/mL
COc1ccc(F)cc1[C@@](O)(CO)Cn1c(=O)n(C(C)(C)C(=O)NC(C)C)c(=O)c2c(C)c(-n3nccn3)sc21 [Compound I-225]	5 to 10	–	–	–	–	–	–	–	–	–	–	–	1 to 5	0.25 to 1 (≈ 0.435 to 1.74 µM)	0.25 to 1 (≈ 0.435 to 1.74 µM)	1.01 to 2 (≈ 1.76 to 3.48 µM)	0.4 (≈ 0.696 µM)	0.08 (≈ 0.139 µM)	0.4 (≈ 0.696 µM)	0.08 (≈ 0.139 µM)	IC90 [3, 22]: 0.4 µg/mL (≈ 0.696 µM); IC90 [4, 23]: 2 µg/mL (≈ 3.48 µM); IC90 (Rhizoctonia solani (Rs); [24]): 0.08 µg/mL (≈ 0.139 µM); IC90 (Septoria tritici (St); [25]): > 50 µg/mL
COc1ccc(F)cc1CCn1c(=O)n(C(C)(C)C(=O)NC(C)C)c(=O)c2c(C)c(-n3nccn3)sc21 [Compound I-268]	10 to 40	–	–	–	–	–	–	–	–	–	–	–	1 to 5	–	–	–	–	–	–	–	MIC, C. albicans ATCC 90028 (C. albicans; [26]): B (MIC of 1.01-2.0 μg/mL); MIC, C. krusei ATCC 6258 (C. krusei; [26]): A (MIC of 0.25-1.0 μg/mL); MIC, C. parapsilosis ATCC 22019 (C. parapsilosis; [26]): B (MIC of 1.01-2.0 μg/mL); Concentration at 90% Inhibition Bc (Botrtyis cinerea (Bc); Botrtyis cinerea): A (compound concentration of 0.4 ppm at 90% inhibition of fungal pathogens); Concentration at 90% Inhibition Cg ([1]; Collectotrichum graminicola): C (compound concentration of 10.0 ppm at 90% inhibition of fungal pathogens); Concentration at 90% Inhibition Dm (Diplodia maydis (Dm); Diplodia maydis): C (compound concentration of 10.0 ppm at 90% inhibition of fungal pathogens); Concentration at 90% Inhibition Fm [2, 11]: A (compound concentration of 0.4 ppm at 90% inhibition of fungal pathogens); Concentration at 90% Inhibition Fv [3, 27]: AA (compound concentration of 0.08 ppm at 90% inhibition of fungal pathogens); Concentration at 90% Inhibition Pc [4, 27]: D (compound concentration of >50 ppm at 90% inhibition of fungal pathogens); Concentration at 90% Inhibition Rs (Rhizoctonia solani (Rs); mycelial plugs, growth inhibition at 48 hours vs 2% DMSO control): B (compound concentration of 2.0 ppm at 90% inhibition of fungal pathogens); Concentration at 90% Inhibition St (Septoria tritici (St); Septoria tritici): D (compound concentration of >50 ppm at 90% inhibition of fungal pathogens)
